This is an account of results in PubChem BioAssay AID602251 (NMMLSC, 2012).

Active and inactive are the calls of the source.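 Rule for the calls: active = fitted concentration giving half of the maximal binding block below 66 µM; inactive = the rest.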

As a reminder, the EC50 is the midpoint of the concentration-response curve.

The target of the first assay is anti-desmoglein 3 scFv antibody binding to human desmoglein 3 (DSG3). Kind of assay: inhibitors of anti-DSG3 scFv binding to DSG3, dose response, biochemical, DSG3-coupled beads, scFv-GFP, flow cytometry, Cherry Pick 1 (AID 602251).
Conditions: not given
In the case of `CC1CCN(S(=O)(=O)c2ccc3c(c2)c(=O)c(C(=O)NCc2cccs2)cn3C)CC1`, the EC50 is 55.8 µM.

With `COc1ccccc1NC(=O)Cn1nnc(-c2ccccc2NC(=O)c2cc3ccccc3oc2=O)n1`, the EC50 is 25.8 µM.

Turning to `O=C(O)C1Nc2c(O)cc(Cl)c([N+](=O)[O-])c2C2C=CCC12` (stereo unspecified), the 50% effective concentration (EC50) is 27.7 µM. In the case of `C=CCn1c(SCC(=O)N2CCN(c3ccccc3)CC2)nc2c([nH]c3ccccc32)c1=O`, the EC50 is 50.9 µM. In the case of `O=C(Nc1ccc(N2CCOCC2)cc1)c1ccc2nc(-c3ccco3)c(-c3ccco3)nc2c1`, the EC50 is 25.4 µM.

For the compound `CCC(=C/c1sc2ccc3ccccc3c2[n+]1C)/C=C1\Sc2ccc3ccccc3c2N1C`, the EC50 is 25.9 µM. On the same count and under the same terms, next, `Cc1ccc(C(C)C)c(OCC(=O)Nc2ccc(N3CCN(S(C)(=O)=O)CC3)cc2)c1`: 20.9 µM; `CN1C(=CC=C2C=C(I)C(=O)C(I)=C2)C(C)(C)c2ccccc21`: 15.7 µM.

The assay is the same for the next values; noted with them: at 66.1 µM (top of the series).
On to `O=C1c2ccc(-c3ccc(F)cc3OCc3ccccc3)cc2S(=O)(=O)c2cccc(C(=O)N3CCN(c4ncc(Br)cn4)CC3)c21`, for which the “binding response, lower = inhibition” value is “inactive”. As to `COc1ccc(NC(=O)c2cc(-c3ccco3)nc3ccccc23)cc1`, the “binding response, lower = inhibition” value is “inactive”.

For the compound `CCC(C)n1cnc2c(c1=O)c1nc3ccccc3nc1n2-c1ccc2c(c1)OCCO2` (stereo unspecified), the “binding response, lower = inhibition” value is “inactive”.

`CCCn1c(C)nc2c(c1=O)c1nc3ccccc3nc1n2-c1ccccc1`: the “binding response, lower = inhibition” value was “inactive”.

In the case of `Cc1nnc2ccc(-c3ccc(NS(=O)(=O)c4ccccc4)cc3)nn12`, the “binding response, lower = inhibition” value was “inactive”. Turning to `CC(=O)c1ccc(NC(=O)CSc2ccsc2[N+](=O)[O-])cc1`, the “binding response, lower = inhibition” value was “inactive”.

Turning to `CCOc1ccc(N(CC(=O)NCCSCc2ccco2)S(=O)(=O)c2ccc(C)cc2)cc1`, the “binding response, lower = inhibition” value is “inactive”. As to `CN(C)Cc1cc(O)c(CN(C)C)cc1O`, the “binding response, lower = inhibition” value was “inactive”. Take `Cc1cc(NC(=O)c2cc(-c3ccccn3)nc3ccc(Br)cc23)no1`: the “binding response, lower = inhibition” value is “inactive”. Turning to `Cc1ccc(O)c(NC(=O)CSc2ccc(Cl)cc2)c1`, the “binding response, lower = inhibition” value was “inactive”. Take `CN(C(=O)CSc1nc2cc([N+](=O)[O-])ccc2n1-c1ccc(F)cc1)C1CCS(=O)(=O)C1` (stereo unspecified): the “binding response, lower = inhibition” value was “inactive”. Consider `COc1ccc(C2=C(Nc3ccc(F)cc3)c3ccccc3C2=O)cc1`, for which the “binding response, lower = inhibition” value was “inactive”. As for `CCOC(=O)CN1C(=O)/C(=C/c2ccccc2Br)Oc2ccccc21`, the “binding response, lower = inhibition” value is “inactive”.
